Results published in patent US12492186B2, “Bicyclic heterocyclic compounds useful as IRAK4 inhibitors” (BRISTOL-MYERS SQUIBB COMPANY, priority 2019, dated 2025).
pEC50, pIC50: −log10 of the molar value.

Columns and labels:
Human whole blood = test: IRAK4 Whole Blood Assay (IL-6 levels after stimulation with TLR2 agonist lipoteichoic acid); format: cell-based; conditions: 10 μg/mL lipoteichoic acid, 5 hours
Protocol: Human whole blood containing the anti-coagulant ACD-A was plated in 384-well plate (25 μL/well) and incubated with compounds for 60 minutes at 37° C. in a 5% CO2 incubator. The blood was stimulated with a TLR2 agonist, 10 μg/mL final concentration of lipoteichoic acid (Invivogen, San Diego, CA) in 25 μL RPMI (Gibco) for 5 hours in a 5% CO2 incubator. At the end of the incubation, plates were centrifuged at 2300 rpm for 5 minutes. Supernatants were harvested and analyzed for IL-6 levels by Flow Cytometry beads assay (BD Biosciences, San Jose, CA).

IRAK4 = IRAK4 (Homo sapiens (Human), UniProt Q9NWZ3); test: IRAK4 Inhibition Assay; format: biochemical; conditions: ATP 500 μM; IRAK4 0.6 nM; 60 min room temperature; Caliper LABCHIP 3000
IRAK4, sequence (Q9NWZ3 whole entry, species assumed): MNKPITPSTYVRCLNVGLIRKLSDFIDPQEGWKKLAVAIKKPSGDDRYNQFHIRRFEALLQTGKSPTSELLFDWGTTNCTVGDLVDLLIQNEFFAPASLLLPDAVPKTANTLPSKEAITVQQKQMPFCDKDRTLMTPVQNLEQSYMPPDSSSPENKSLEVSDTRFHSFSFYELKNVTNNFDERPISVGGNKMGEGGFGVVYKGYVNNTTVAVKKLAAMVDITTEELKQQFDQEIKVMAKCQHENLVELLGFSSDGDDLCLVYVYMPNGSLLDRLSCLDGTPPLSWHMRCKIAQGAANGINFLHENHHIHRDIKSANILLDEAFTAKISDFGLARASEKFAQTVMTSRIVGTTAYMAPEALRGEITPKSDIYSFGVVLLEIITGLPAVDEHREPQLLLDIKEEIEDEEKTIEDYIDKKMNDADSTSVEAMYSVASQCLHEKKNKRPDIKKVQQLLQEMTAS

Row | SMILES | pEC50 (Human whole blood) | pIC50 (IRAK4)
1 | CC(C)Nc1c(C(=O)NCCCc2csc(N)n2)cnc2ccc(-c3cn[nH]c3)cc12 [Example 113, N-(3-(2-aminothiazol-4-yl)propyl)-4-(isopropylamino)-6-(1H-pyrazol-4-yl)quinoline-3-carboxamide] | 5.79 | 8.24
2 | CC(=O)N[C@H]1C[C@H](NC(=O)c2cnc3ccc(-c4cn[nH]c4)cc3c2NC(C)C)C1 [Example 46, N-((1r,3r)-3-acetamidocyclobutyl)-4-(isopropylamino)-6-(1H-pyrazol-4-yl)quinoline-3-carboxamide] | 5.68 | 8.18
3 | O=C(NCCC1CCS(=O)(=O)CC1)c1cnc2ccc(-c3cn[nH]c3)cc2c1NC1CC1 [Example 120, 4-(cyclopropylamino)-N-(2-(1,1-dioxidotetrahydro-2H-thiopyran-4-yl)ethyl)-6-(1H-pyrazol-4-yl)quinoline-3-carboxamide] | 5.22 | 8.06
4 | CC(C)Nc1c(C(=O)NCCCNS(C)(=O)=O)cnc2ccc(-c3cn[nH]c3)cc12 [Example 95, 4-(isopropylamino)-N-(3-(methylsulfonamido)propyl)-6-(1H-pyrazol-4-yl)quinoline-3-carboxamide] | 5.49 | 7.98
5 | COC(=O)N[C@H]1CC[C@H](NC(=O)c2cnc3ccc(-c4cn[nH]c4)cc3c2NC(C)C)C1 [Example 26, methyl ((1S,3S)-3-(4-(isopropylamino)-6-(1H-pyrazol-4-yl)quinoline-3-carboxamido)cyclopentyl) carbamate] | 5.84 | 7.91
6 | CC(C)Nc1c(C(=O)NCCC2CC2)cnc2ccc(-c3cncs3)nc12 [Example 148, N-(2-cyclopropylethyl)-4-(isopropylamino)-6-(thiazol-5-yl)-1,5-naphthyridine-3-carboxamide] | 5.27 | 7.79
7 | CC(C)Nc1c(C(=O)NC2CCN(Cc3ccc(F)cc3)CC2)cnc2ccc(-c3cn[nH]c3)cc12 [Example 76, N-(1-(4-fluorobenzyl)piperidin-4-yl)-4-(isopropylamino)-6-(1H-pyrazol-4-yl)quinoline-3-carboxamide] | 5.77 | 7.91
8 | CC(C)Nc1c(C(=O)NCCCc2ccncc2)cnc2ccc(-c3cn[nH]c3)cc12 [Example 114, 4-(isopropylamino)-6-(1H-pyrazol-4-yl)-N-(3-(pyridin-4-yl)propyl)quinoline-3-carboxamide] | 5.76 | 8.04
9 | CC(C)Nc1c(C(=O)NCc2nnc[nH]2)cnc2ccc(-c3cn[nH]c3)cc12 [Example 22, N-((4H-1,2,4-triazol-3-yl)methyl)-4-(isopropylamino)-6-(1H-pyrazol-4-yl)quinoline-3-carboxamide] | 5.19 | 8.12
10 | CCNc1c(C(=O)NC[C@@H](F)C(C)(C)O)cnc2ccc(-c3cn[nH]c3)cc12 [Example 27, (R)-4-(ethylamino)-N-(2-fluoro-3-hydroxy-3-methylbutyl)-6-(1H-pyrazol-4-yl)quinoline-3-carboxamide] | 5.55 | 8.05
11 | CC(C)Nc1c(-c2cn(C3CCN(C)C3=O)nn2)cnc2ccc(-c3cn[nH]c3)cc12 (stereo not shown) [Example 136, 3-(4-(4-(isopropylamino)-6-(1H-pyrazol-4-yl)quinolin-3-yl)-1H-1,2,3-triazol-1-yl)-1-methylpyrrolidin-2-one] | 5.29 | 7.94
12 | CC(C)CCn1cc(-c2cnc3ccc(-c4cn[nH]c4)cc3c2NC(C)C)nn1 [Example 129, 3-(1-isopentyl-1H-1,2,3-triazol-4-yl)-N-isopropyl-6-(1H-pyrazol-4-yl)quinolin-4-amine] | 5.85 | 8.92
13 | CC(C)Nc1c(C(=O)NC[C@@H](F)C(C)(C)O)cnc2ccc(-c3cncs3)cc12 [Example 7, (R)—N-(2-fluoro-3-hydroxy-3-methylbutyl)-4-(isopropylamino)-6-(thiazol-5-yl)quinoline-3-carboxamide] | 5.24 | 8.09
14 | CC(C)Nc1c(C(=O)NCCc2ccncc2)cnc2ccc(-c3cn[nH]c3)cc12 [Example 109, 4-(isopropylamino)-6-(1H-pyrazol-4-yl)-N-(2-(pyridin-4-yl)ethyl)quinoline-3-carboxamide] | 5.63 | 8.36

Continued by rising pEC50 (Human whole blood), values first:

Row | pEC50 (Human whole blood) | pIC50 (IRAK4) | SMILES
15 | 5.85 | 7.93 | CC(C)Nc1c(C(=O)NC2CCN(C(=O)C3CC3)CC2)cnc2ccc(-c3cn[nH]c3)cc12 [Example 81, N-(1-(cyclopropanecarbonyl)piperidin-4-yl)-4-(isopropylamino)-6-(1H-pyrazol-4-yl)quinoline-3-carboxamide]
16 | 5.86 | 8.14 | CC(C)Nc1c(C(=O)N[C@H]2C[C@H](O)C2)cnc2ccc(-c3cn[nH]c3)nc12 [Example 143, N-((1r,3r)-3-hydroxycyclobutyl)-4-(isopropylamino)-6-(1H-pyrazol-4-yl)-1,5-naphthyridine-3-carboxamide]
17 | 5.90 | 8.60 | CC1(Nc2c(C(=O)NCCc3cccnc3)cnc3ccc(-c4cn[nH]c4)cc23)CC1 [Example 122, 4-((1-methylcyclopropyl)amino)-6-(1H-pyrazol-4-yl)-N-(2-(pyridin-3-yl)ethyl)quinoline-3-carboxamide]
18 | 5.92 | 8.01 | CC(C)Nc1c(C(=O)NCCN2CCOCC2)cnc2ccc(-c3cn[nH]c3)cc12 [Example 44, 4-(isopropylamino)-N-(2-morpholinoethyl)-6-(1H-pyrazol-4-yl)quinoline-3-carboxamide]
19 | 5.93 | 8.17 | CC(=O)N1CCC(c2cc(-c3cnc4ccc(-c5cn[nH]c5)cc4c3NC(C)C)on2)CC1 [Example 127, 1-(4-(5-(4-(isopropylamino)-6-(1H-pyrazol-4-yl)quinolin-3-yl)isoxazol-3-yl)piperidin-1-yl)ethan-1-one]
20 | 5.96 | 8.36 | O=C(NCCc1cccnc1)c1cnc2ccc(-c3cn[nH]c3)cc2c1NC1CC1 [Example 115, 4-(cyclopropylamino)-6-(1H-pyrazol-4-yl)-N-(2-(pyridin-3-yl)ethyl)quinoline-3-carboxamide]
21 | 6.01 | 8.20 | CC(C)Nc1c(-c2cn(C3CN(CC(F)F)C3)nn2)cnc2ccc(-c3cn[nH]c3)cc12 [Example 134, 3-(1-(1-(2,2-difluoroethyl)azetidin-3-yl)-1H-1,2,3-triazol-4-yl)-N-isopropyl-6-(1H-pyrazol-4-yl)quinolin-4-amine]
22 | 6.06 | 8.04 | COC(=O)N[C@H]1C[C@H](NC(=O)c2cnc3ccc(-c4cn[nH]c4)cc3c2NC(C)C)C1 [Example 47, methyl ((1r,3r)-3-(4-(isopropylamino)-6-(1H-pyrazol-4-yl)quinoline-3-carboxamido)cyclobutyl)carbamate]
23 | 6.10 | 8.00 | CC(=O)N1CCC(NC(=O)c2cnc3ccc(-c4cn[nH]c4)cc3c2NC(C)C)CC1 [Example 77, N-(1-acetylpiperidin-4-yl)-4-(isopropylamino)-6-(1H-pyrazol-4-yl)quinoline-3-carboxamide]
24 | 6.15 | 8.11 | CC(C)Nc1c(-c2cn(CCCO)nn2)cnc2ccc(-c3cn[nH]c3)cc12 [Example 131, 3-(4-(4-(isopropylamino)-6-(1H-pyrazol-4-yl)quinolin-3-yl)-1H-1,2,3-triazol-1-yl)propan-1-ol]
25 | 6.16 | 8.35 | CC(C)Nc1c(C(=O)NCCC2CC2)cnc2ccc(-c3cn[nH]c3)cc12 [Example 51, N-(2-cyclopropylethyl)-4-(isopropylamino)-6-(1H-pyrazol-4-yl)quinoline-3-carboxamide]
26 | 6.16 | 8.57 | CC1(Nc2c(C(=O)NC[C@@H](F)C(C)(C)O)cnc3ccc(-c4cn[nH]c4)cc23)CC1 [Example 121, (R)—N-(2-fluoro-3-hydroxy-3-methylbutyl)-4-((1-methylcyclopropyl)amino)-6-(1H-pyrazol-4-yl)quinoline-3-carboxamide]
27 | 6.17 | 8.11 | CC(C)CCNC(=O)c1cnc2ccc(-c3cn[nH]c3)cc2c1NC(C)C [Example 15, N-isopentyl-4-(isopropylamino)-6-(1H-pyrazol-4-yl)quinoline-3-carboxamide]
28 | 6.30 | 8.48 | CC(=O)N[C@H]1CC[C@H](NC(=O)c2cnc3ccc(-c4cn[nH]c4)nc3c2NC(C)C)CC1 [Example 155, N-((1r,4r)-4-acetamidocyclohexyl)-4-(isopropylamino)-6-(1H-pyrazol-4-yl)-1,5-naphthyridine-3-carboxamide]
29 | 6.35 | 8.39 | CC(C)Nc1c(C(=O)N[C@H]2CC[C@H](n3ccnn3)CC2)cnc2ccc(-c3cn[nH]c3)cc12 [Example 101, N-((1r,4r)-4-(1H-1,2,3-triazol-1-yl)cyclohexyl)-4-(isopropylamino)-6-(1H-pyrazol-4-yl)quinoline-3-carboxamide]
30 | 6.46 | 8.04 | CC(C)Nc1c(C(=O)NCCC(F)F)cnc2ccc(-c3cn[nH]c3)cc12 [Example 45, N-(3,3-difluoropropyl)-4-(isopropylamino)-6-(1H-pyrazol-4-yl)quinoline-3-carboxamide]
31 | 6.86 | 8.19 | CC(C)Nc1c(C(=O)NCCC(F)(F)F)cnc2ccc(-c3cn[nH]c3)nc12 [Example 142, 4-(isopropylamino)-6-(1H-pyrazol-4-yl)-N-(3,3,3-trifluoropropyl)-1,5-naphthyridine-3-carboxamide]
32 | 7.24 | 8.57 | CC(C)Nc1c(C(=O)NCCC(C)(C)O)cnc2ccc(-c3cn[nH]c3)nc12 [Example 138, N-(3-hydroxy-3-methylbutyl)-4-(isopropylamino)-6-(1H-pyrazol-4-yl)-1,5-naphthyridine-3-carboxamide]
